The source of these data is US20250332173A1, “COMPOUNDS AND METHODS FOR MODULATING NUCLEIC ACID SPLICING” (REMIX THERAPEUTICS INC., priority 2021, published 2025).

One assay relates to MYB mRNA. As to the kind of experiment: RT-qPCR splicing assay, MYB canonical junction (CJ) and alternative junction (AJ) mRNA. The note with it: Homo sapiens; for AC50: increase in MYB alternative junction (AJ) mRNA, read-out: MYB AJ AC50. The class given is cell-based, human. The gist of the method: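 Splicing switches were read by TaqMan RT-qPCR on lysates, quantifying exon-exon junctions of the canonical and alternative-exon isoforms. Lysates came from K562 (GAPDH/GUSB reference) or A673 (PPIA reference) cells exposed 24 h to compound in 11 threefold steps from 10 uM, with DMSO ≤0.25%.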
On the technique in general: Quantitative PCR measures a nucleic acid by following its amplification.

The test system of another assay is Target C. As to the kind of experiment: RT-qPCR splicing assay panel, Target C canonical junction (CJ) mRNA. The note with it: Homo sapiens; Table 5 panel; canonical junction qPCR; compound concentration having 50% response in CJ decrease; read-out: Target C IC50 (decrease in CJ mRNA levels). It counts as cell-based, human. A digest of the protocol:
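K562/A673 cells, 11-pt 3-fold compound titration from 10 uM final, DMSO ≤0.25%, 24 h 37 °C 5% CO2; lyse (DNase I or Igepal/Tris buffer pH 7.4); RT-qPCR for CJ isoform vs housekeeping gene (GAPDH/GUSB/PPIA).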

Assay [1] concerns K562 (human chronic myelogenous leukemia) cells. The assay is described as follows: Cell Titer Glo 2.0 cell viability assay. Conditions: Homo sapiens, K562, 72 h, K562 cells, 72 hours, Cell Titer Glo 2.0; read-out: K562 GI50. It counts as cell-based. In general terms: In ATP-based viability assays light output follows the ATP content of the culture.
[2] abbreviates: Table 5 panel, canonical junction qPCR, compound concentration having 50% response in CJ decrease, read-out: MYB IC50 (decrease in CJ mRNA levels).
The mark [3] stands for this setting: decrease in MYB canonical junction (CJ) mRNA, RT-qPCR, read-out: MYB CJ IC50.

Each structure is given as a SMILES string. Where two headings read alike, the source gives them in different places. A value given as a limit tells only on which side of the number the result lay.

Broadly, the IC50 is the midpoint of a concentration-inhibition curve. Broadly, the AC50 is the midpoint of the concentration-response curve, whichever way the signal moves. Broadly, the GI50 is the concentration that inhibits growth by half. `Cc1cn2nc(-c3ccc4c(=O)n([C@@H]5CCN[C@H](C)C5)ncc4c3)cc(C)c2n1` [Compound 272]: the IC50 in the assay with MYB mRNA (setting [2]) is under 0.1 µM; in the assay on MYB mRNA (setting [3]), 0.1 to 1 µM; in the assay with Target C, 0.1 to 1 µM. Besides, the AC50 with MYB mRNA (RT-qPCR) was under 0.1 µM. Further, the 50% growth inhibitory concentration (GI50) in assay [1] lay within 0.1 to 1 µM.
With `Cc1cn2nc(-c3ccc4c(=O)n(C5CCNC6(CC6)C5)ncc4c3)cc(C)c2n1` (centres unmarked) [Compound 274], the IC50 in the assay on MYB mRNA (setting [2]), with MYB mRNA (setting [3]) and with Target C was under 0.1 µM in each case. In the assay with MYB mRNA (RT-qPCR), the AC50 was under 0.1 µM. Besides, the GI50 in assay [1] fell in the range of 0.1 to 1 µM.
Take `Cc1cn2cc(-c3ccc4c(=O)n(C5CCNCC5)ccc4c3)cc(F)c2n1` [Compound 276]: the IC50 in the assay with MYB mRNA (setting [2]), with MYB mRNA (setting [3]) and in the assay with Target C was under 0.1 µM each time. Also, the AC50 with MYB mRNA (RT-qPCR) was under 0.1 µM. Besides, in assay [1], the GI50 is under 0.1 µM.
On to `Cc1cn2nc(-c3ccc4c(=O)n([C@@H]5CCN(C)[C@H](C)C5)ncc4c3)cc(C)c2n1` [Compound 277], for which the IC50 in the assay on MYB mRNA (setting [2]) lay within 0.1 to 1 µM; with MYB mRNA (setting [3]), 0.1 to 1 µM; in the assay with Target C, 1 to 10 µM. Also, the AC50 in the assay with MYB mRNA (RT-qPCR) was 0.1 to 1 µM. The 50% growth inhibitory concentration (GI50) in assay [1] was in the range of 1 to 10 µM.
As to `Cc1cn2nc(-c3ccc4c(=O)n([C@H]5CCN(C)[C@H](C)C5)ncc4c3)cc(C)c2n1` [Compound 278], the IC50 in the assay on MYB mRNA (setting [2]), with MYB mRNA (setting [3]) and in the assay with Target C was 0.1 to 1 µM in each case. Also, the AC50 in the assay with MYB mRNA (RT-qPCR) was in the range of 0.1 to 1 µM. Moreover, the GI50 in assay [1] lay within 0.1 to 1 µM.
As to `Cc1cn2nc(-c3ccc4c(=O)n(C5CCNC(C)(C)C5)ncc4c3)cc(C)c2n1` (centres unmarked) [Compound 279], the IC50 in the assay with MYB mRNA (setting [2]) is under 0.1 µM; in the assay with MYB mRNA (setting [3]), 0.1 to 1 µM; in the assay with Target C, 0.1 to 1 µM. For the same molecule, in the assay on MYB mRNA (RT-qPCR), the AC50 was under 0.1 µM. The GI50 in assay [1] fell in the range of 1 to 10 µM.
For `Cc1cn2nc(-c3ccc4c(=O)n([C@@H]5C[C@H]6CC[C@@H](C5)N6)ncc4c3)cc(C)c2n1` [Compound 280], the IC50 in the assay with MYB mRNA (setting [2]) was 0.1 to 1 µM; with MYB mRNA (setting [3]), 0.1 to 1 µM; with Target C, 1 to 10 µM. In addition, the AC50 with MYB mRNA (RT-qPCR) lay in the range of 0.1 to 1 µM. Also, the GI50 in assay [1] lay in the range of 1 to 10 µM.
Consider `Cc1cn2nc(-c3ccc4c(c3)CCN([C@@H]3CCN[C@H](C)C3)C4=O)cc(C)c2n1` [Compound 281], for which the IC50 with MYB mRNA (setting [2]), in the assay on MYB mRNA (setting [3]) and in the assay on Target C was 1 to 10 µM each time. Besides, in the assay with MYB mRNA (RT-qPCR), the AC50 fell in the range of 1 to 10 µM. Further, the 50% growth inhibitory concentration (GI50) in assay [1] was in the range of 1 to 10 µM.
In the case of `Cc1cn2nc(-c3ccc4c(c3)CCN(C3CCN(C)C3)C4=O)cc(C)c2n1` (centres unmarked) [Compound 282], the 50% inhibitory concentration (IC50) in the assay on MYB mRNA (setting [2]), in the assay on MYB mRNA (setting [3]) and with Target C was over 10 µM in each case. In addition, in the assay on MYB mRNA (RT-qPCR), the half-maximal activity concentration (AC50) is over 10 µM. Moreover, the GI50 in assay [1] was over 10 µM.
For the molecule `Cc1cn2nc(-c3ccc4c(=O)n(C5CCCNCC5)ncc4c3)cc(C)c2n1` (centres unmarked) [Compound 283], the IC50 in the assay on MYB mRNA (setting [2]), in the assay with MYB mRNA (setting [3]) and in the assay with Target C was 0.1 to 1 µM throughout. For the same molecule, the AC50 in the assay on MYB mRNA (RT-qPCR) is 0.1 to 1 µM. The GI50 in assay [1] was 0.1 to 1 µM.
With `O=c1c2ccc(-c3cn[nH]c3)cc2ncn1C1CCNCC1` [Compound 284], the IC50 in the assay with MYB mRNA (setting [2]), in the assay on MYB mRNA (setting [3]) and in the assay with Target C was over 10 µM throughout. In addition, the AC50 in the assay with MYB mRNA (RT-qPCR) was over 10 µM. In addition, the GI50 in assay [1] is over 10 µM.
For the molecule `Cc1nc2c(F)cc(-c3ccc4c(=O)n(C5CCNCC5)cnc4c3)cc2s1` [Compound 285], the IC50 in the assay on MYB mRNA (setting [2]) is 0.1 to 1 µM; in the assay with MYB mRNA (setting [3]), 1 to 10 µM; in the assay with Target C it was over 10 µM. Further, the AC50 with MYB mRNA (RT-qPCR) fell in the range of 0.1 to 1 µM. Also, the GI50 in assay [1] lay in the range of 0.1 to 1 µM.
Turning to `Cc1cn2cc(-c3ccc4c(=O)n(C5CCNCC5)cnc4c3)nc2c(C)n1` [Compound 286], the IC50 in the assay on MYB mRNA (setting [2]), in the assay on MYB mRNA (setting [3]) and in the assay on Target C was 1 to 10 µM each time. Moreover, the AC50 in the assay on MYB mRNA (RT-qPCR) fell in the range of 1 to 10 µM. In addition, the GI50 in assay [1] was in the range of 0.1 to 1 µM.
Turning to `Cc1cn2nc(-c3ccc4c(=O)n(C5CCNCC5)cnc4c3)nc2c(C)n1` [Compound 287, 7-{6,8-dimethyl-[1,2,4]triazolo[1,5-a]pyrazin-2-yl}-3-(piperidin-4-yl)quinazolin-4-one], the IC50 in the assay on MYB mRNA (setting [2]), with MYB mRNA (setting [3]) and in the assay on Target C was 0.1 to 1 µM in each case. In the assay with MYB mRNA (RT-qPCR), the AC50 is 0.1 to 1 µM. Besides, in assay [1], the GI50 was in the range of 0.1 to 1 µM.
For `Cc1cn2nc(-c3ccc4c(=O)n(C5CCN(C)CC5)cnc4c3F)cc(C)c2n1` [Compound 290], the IC50 in the assay on MYB mRNA (setting [2]), with MYB mRNA (setting [3]) and with Target C was 0.1 to 1 µM each time. In the assay with MYB mRNA (RT-qPCR), the AC50 was in the range of 0.1 to 1 µM.
